Experimental findings from patent US11498923B2 (Merck Sharp & Dohme Corp., priority 2017, dated 2022) are described below.

The target of one assay is T1, human A2a receptor (Homo sapiens, UniProt P29274).
T1 construct: purchased Perkin-Elmer RBHA2AM400UA; host or cells: HEK293 cells, used as a membrane preparation
T1 sequence (P29274 whole entry): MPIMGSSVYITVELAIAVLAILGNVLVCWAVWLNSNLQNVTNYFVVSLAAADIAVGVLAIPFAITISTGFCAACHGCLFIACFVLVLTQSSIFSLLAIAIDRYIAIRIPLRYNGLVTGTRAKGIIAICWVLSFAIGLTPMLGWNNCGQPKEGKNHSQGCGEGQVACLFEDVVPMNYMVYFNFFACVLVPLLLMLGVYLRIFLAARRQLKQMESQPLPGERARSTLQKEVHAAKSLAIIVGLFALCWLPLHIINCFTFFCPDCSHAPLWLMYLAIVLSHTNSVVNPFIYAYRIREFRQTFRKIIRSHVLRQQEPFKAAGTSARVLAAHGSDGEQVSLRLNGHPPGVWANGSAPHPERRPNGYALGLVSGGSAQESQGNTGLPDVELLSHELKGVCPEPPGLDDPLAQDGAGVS
The assay can be described thus: A2a receptor competition binding assay (Scintillation Proximity). The conditions noted are these: membranes from HEK293 cells expressing human A2a receptor; 0.5 nM tritiated ligand; Cheng-Prusoff; read-out: A2a Ki. A digest of the protocol:
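Ki values were obtained with the Cheng-Prusoff equation from competition curves against 0.5 nM tritiated antagonist, scintillation proximity counting after 1 h room-temperature incubation. Receptor came from HEK293 membranes pretreated with adenosine deaminase; compound final range 3000–0.15 nM, buffer Ca/Mg-free PBS with 10 mM MgCl2.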
For the molecule `Nc1nc2c(F)cccc2c2nc(CC3CCN(C(=O)c4cccnc4)CC3)cn12` [Ex-317, (4-((5-amino-7-fluoroimidazo-[1,2-c]quinazolin-2-yl)methyl)piperidin-1-yl)(pyridin-3-yl)-methanone], the Ki came out at 100 nM.

On to `Nc1nc2c(F)cccc2c2nc(CC3CCN(c4ccc(F)cn4)CC3)cn12` [Ex-319, 5-amino-7-fluoro-2-((1-(5-fluoropyridin-2-yl)piperidin-4-yl)-methyl)imidazo[1,2-c]quinazolin-6-ium 2,2,2-trifluoroacetate], for which the Ki turned out to be 31 nM.

As to `COc1ccnc(C(=O)N2CCC(Cc3cn4c(N)nc5c(F)cccc5c4n3)CC2)c1` [Ex-320, (4-((5-amino-7-fluoroimidazo[1,2-c]quinazolin-2-yl)-methyl)piperidin-1-yl)(4-methoxypyridin-2-yl)methanone], the Ki is 30 nM.

Regarding `Nc1nc2c(F)cccc2c2nc(CC3CCN(C(=O)c4cnccn4)CC3)cn12` [Ex-321, (4-((5-amino-7-fluoroimidazo[1,2-c]quinazolin-2-yl)-methyl)piperidin-1-yl)(pyrazin-2-yl)-methanone], the Ki was 34 nM.

For the molecule `Nc1nc2c(F)cccc2c2nc(CC3CCN(C(=O)c4cccc(Br)n4)CC3)cn12` [Ex-322, (4-((5-amino-7-fluoroimidazo[1,2-c]quinazolin-2-yl)-methyl)piperidin-1-yl)(6-bromopyridin-2-yl)methanone], the Ki was found to be 26 nM.

For `Nc1nc2c(F)cccc2c2nc(CC3CCN(C(=O)c4ccc(F)cn4)CC3)cn12` [Ex-323, (4-((5-amino-7-fluoroimidazo[1,2-c]quinazolin-2-yl)-methyl)piperidin-1-yl)(5-fluoropyridin-2-yl)methanone], the Ki is 17 nM.

In the case of `Cc1cccc(C(=O)N2CCC(Cc3cn4c(N)nc5c(F)cccc5c4n3)CC2)n1` [Ex-324, (4-((5-amino-7-fluoroimidazo[1,2-c]quinazolin-2-yl)-methyl)piperidin-1-yl)(6-methylpyridin-2-yl)methanone], the Ki was 44 nM.

As to `COc1cccc(C(=O)N2CCC(Cc3cn4c(N)nc5c(F)cccc5c4n3)CC2)n1` [Ex-325, (4-((5-amino-7-fluoroimidazo[1,2-c]-quinazolin-2-yl)-methyl)piperidin-1-yl)(6-methoxypyridin-2-yl)methanone], the Ki came out at 54 nM.

As to `Nc1nc2c(F)cccc2c2nc(CC3CCN(C(=O)c4ncccn4)CC3)cn12` [Ex-326, (4-((5-amino-7-fluoroimidazo[1,2-c]quinazolin-2-yl)-methyl)piperidin-1-yl)(pyrimidin-2-yl)-methanone], the Ki came to 47 nM.

As to `COc1ccc(C(=O)N2CCC(Cc3cn4c(N)nc5c(F)cccc5c4n3)CC2)nc1` [Ex-327, (4-((5-amino-7-fluoroimidazo[1,2-c]quinazolin-2-yl)-methyl)piperidin-1-yl)(5-methoxypyridin-2-yl)methanone], the Ki turned out to be 21 nM.

The same assay, now with this note: value printed in the synthesis text as 'A2a=' without quantity name; read-out: A2a.
With `Nc1nc2c(F)cccc2c2nc(Cc3ccc4c(c3)CN(C(=O)c3ccccc3)C4)cn12` [L-005052550, (5-((5-amino-7-fluoroimidazo[1,2-c]quinazolin-2-yl)methyl)isoindolin-2-yl)(phenyl)methanone], the Ki is 8.4 nM.
